Like-named read-outs stand apart in the source and are kept apart here.
Key:
Amyloid β protein 1-40 = target: T1, Amyloid β protein 1-40 (Homo sapiens, UniProt P05067); assay: Fluorescence Congo Red Method; format: binding; conditions: 1 h, compound 10 μM, amyloid β protein 5 μM
T1 construct: Amyloid β protein 1-40 (bought from Peptide Laboratory); purchased Peptide Laboratory

[1] = target: T2, amyloid β protein in the brain section of an Alzheimer disease patient (Homo sapiens, UniProt P05067); assay: Staining test on a brain section of an Alzheimer disease patient: amyloid β protein; format: binding; conditions: 100 μM solution in 50% ethanol, 10 minutes, paraffin brain section
T2 construct: from tissue; host or cells: paraffin-embedded temporal lobe and hippocampus of Alzheimer disease patients
Outline: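 Deparaffinized 6 or 8 μm temporal lobe/hippocampus sections from Alzheimer and normal senile brains, autofluorescence quenched with KMnO4 then K2S2O5/oxalic acid, stained 10 min with 100 μM compound in 50% ethanol and imaged by fluorescence microscopy. Amyloid β immunostaining with 6F/3D antibody and ABC/DAB detection used for comparison.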

[2] = Congo red 0.1 μM, read-out: Binding Percentage of Compound in the presence of 0.1 μM CR
[3] = Congo red 0.3 μM, read-out: Binding Percentage of Compound in the presence of 0.3 μM CR
[4] = Congo red 1 μM, read-out: Binding Percentage of Compound in the presence of 1 μM CR

T1 sequence (P05067 672-711): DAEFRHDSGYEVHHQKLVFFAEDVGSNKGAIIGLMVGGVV
T2 sequence (P05067 672-713 limits assumed): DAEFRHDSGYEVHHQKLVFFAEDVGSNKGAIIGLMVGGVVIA

Question: With `FCCOc1ccc2nc(/C=C/c3cnc(N4CCOCC4)s3)oc2c1` [THK-525, 6-(2-fluoro-ethoxy)-2-[2-(2-morpholin-4-yl-thiazol-5-yl)-vinyl]-benzoxazole] as the compound, how does the activity at 10 µM (Amyloid β protein 1-40; [2]) read?
Answer: 61.4%

Question: What about the activity at 10 µM (Amyloid β protein 1-40; [3]) of the same compound?
Answer: 24.1%

Question: And the activity at 10 µM (Amyloid β protein 1-40; [4])?
Answer: -6.4%

Question: And the “Binding to (staining of) amyloid β protein in the brain section of an Alzheimer disease patient” value (shortened to “Binding”) [1]?
Answer: bound to the amyloid β protein

Question: With `OCC(CF)Oc1ccc2nc(/C=C/c3cnc(N4CCOCC4)s3)oc2c1` (centres unmarked) [THK-702, (E)-2-[2-(2-morpholinothiazol-5-yl)ethenyl]-6-[(1-fluoromethyl-2-hydroxy)ethoxy]-benzoxazole] as the compound, how does the activity at 10 µM (Amyloid β protein 1-40; [2]) read?
Answer: 74.9%

Question: What about the activity at 10 µM (Amyloid β protein 1-40; [3]) of the same compound?
Answer: 37.3%

Question: What about the activity at 10 µM (Amyloid β protein 1-40; [4]) of the same compound?
Answer: 0.8%

Question: And the “Binding” value [1]?
Answer: white space arrow indicates amyloid β protein

Question: Which results are given for `OCC(CF)Oc1ccc2nc(/C=C/c3cnc(N4CCCC4)s3)oc2c1` (centres unmarked) [THK-752, (E)-6-[(1-fluoromethyl-2-hydroxy)ethoxy]-2-[2-[2-(pyrrolidin-1-yl)-thiazol-5-yl]ethenyl]benzoxazole]?
Answer: activity at 10 µM (Amyloid β protein 1-40; [2]): 50.4%; activity at 10 µM (Amyloid β protein 1-40; [3]): 20.6%; activity at 10 µM (Amyloid β protein 1-40; [4]): 11.3%; Binding to (staining of) amyloid β protein in the brain section of an Alzheimer disease patient [1]: white space arrow indicates amyloid β protein

Question: Which activity at 10 µM (Amyloid β protein 1-40; [2]) does the source give for `CNc1ncc(/C=C/c2nc3ccc(OC(CO)CF)cc3o2)s1` (centres unmarked) [THK-761, (E)-6-[(1-fluoromethyl-2-hydroxy)ethoxy]-2-[2-[2-methylaminothiazol-5-yl]ethenyl]-benzoxazole] here?
Answer: 55.2%

Question: What about the activity at 10 µM (Amyloid β protein 1-40; [3]) of the same compound?
Answer: 21.6%

Question: And the activity at 10 µM (Amyloid β protein 1-40; [4])?
Answer: 7%

Question: And the “Binding” value [1]?
Answer: white space arrow indicates amyloid β protein

Question: How did the activity at 10 µM (Amyloid β protein 1-40; [2]) turn out when `CN(C)c1ncc(/C=C/c2nc3ccc(OC(CO)CF)cc3o2)s1` (centres unmarked) [THK-763, (E)-6-[(1-fluoromethyl-2-hydroxy)ethoxy]-2-[2-[2-dimethylamino-thiazol-5-yl]ethenyl]benzoxazole] was run?
Answer: 54.7%

Question: And the activity at 10 µM (Amyloid β protein 1-40; [3])?
Answer: 22.9%

Question: And the activity at 10 µM (Amyloid β protein 1-40; [4])?
Answer: 7.5%

Question: And the “Binding” value [1]?
Answer: white space arrow indicates amyloid β protein
